Among the data in ChEMBL document CHEMBL1151154, “Potential inhibitors of platelet aggregation from plant sources, V. Anthraquinones from seeds of Cassia obtusifolia and related compounds” (1990) are Activity values, retold here.

The structures appear in SMILES notation. Some results are limits rather than exact numbers.

Holding throughout (format): functional
Test [1] is described as follows: Antiplatelet activity in rat platelet rich plasma assessed as drug level causing inhibition of ADP-stimulated platelet aggregation pretreated 2 mins before ADP challenge.
Test [2] in a line: Antiplatelet activity in rat platelet rich plasma assessed as drug level causing inhibition of arachidonic acid-stimulated platelet aggregation pretreated 2 mins before arachidonic acid challenge.
A short description of test [3]: Antiplatelet activity in rat platelet rich plasma assessed as drug level causing inhibition of collagen-stimulated platelet aggregation pretreated 2 mins before collagen challenge.

For the compound `Cc1cc(O)c2c(c1)Cc1cccc(O)c1C2=O`, the Activity in test [1], in test [2] and in test [3] was >0.25 mg/mL each time.
As for `COc1c(O[C@@H]2O[C@H](CO)[C@@H](O)[C@H](O)[C@H]2O)cc2c(c1O)C(=O)c1c(cc(C)c(O)c1OC)C2=O`, the Activity in test [1] was 0.05 mg/mL; in test [2] it was 0.05 mg/mL; in test [3], 0.1 mg/mL.
For `COc1cc2c(c(OC)c1OC)C(=O)c1c(cc(C)c(O[C@@H]3O[C@H](CO)[C@@H](O)[C@H](O)[C@H]3O)c1OC)C2=O`, the figures for the Activity in test [1], in test [2] and in test [3] were 0.025 mg/mL, 0.025 mg/mL and 0.05 mg/mL, respectively.
For the compound `COc1c(O[C@@H]2O[C@H](CO)[C@@H](O)[C@H](O)[C@H]2O)c(C)cc2c1C(=O)c1c(O)cccc1C2=O`, the Activity was 0.25 mg/mL in test [1], 0.05 mg/mL in test [2] and 0.1 mg/mL in test [3].
Turning to `O=C1c2cccc(O)c2C(=O)c2c(O)cc(CO)cc21` [ALOE-EMODIN], the figures for the Activity in test [1], in test [2] and in test [3] were >0.25 mg/mL, 0.25 mg/mL and 0.25 mg/mL, respectively.
As to `O=C1c2ccc(O)cc2C(=O)c2ccc(O)cc21` [ANTHRAFLAVICACID], the Activity in test [1], in test [2] and in test [3] was >0.25 mg/mL in each case.
For the compound `O=C1c2ccccc2C(=O)c2c1ccc(O)c2O` [ATHRAQUINONES A], the Activity in test [1], in test [2] and in test [3] was >0.25 mg/mL throughout.
Turning to `COc1c(O)cc2c(c1O)C(=O)c1c(cc(C)c(O)c1OC)C2=O` [AURANTIOOBTUSIN], the Activity in test [1], in test [2] and in test [3] was >0.25 mg/mL each time.
As to `COc1cc2c(c(OC)c1OC)C(=O)c1c(cc(C)c(O)c1OC)C2=O` [CHRYSOOBTUSIN], the Activity in test [1], in test [2] and in test [3] was 0.25 mg/mL each time.
Take `Cc1cc(O)c2c(c1)C(=O)c1cccc(O)c1C2=O` [CHRYSOPHANOL]: the Activity in test [1], in test [2] and in test [3] was >0.25 mg/mL in each case.
On to `O=C1c2cccc(O)c2C(=O)c2c(O)cccc21` [DANTHRON], for which the Activity in test [1], in test [2] and in test [3] was >0.25 mg/mL throughout.
Take `Cc1cc(O)c2c(c1)C(=O)c1cc(O)cc(O)c1C2=O` [EMODIN]: the Activity in test [1], in test [2] and in test [3] was >0.25 mg/mL in each case.
For `COc1c(O)c(C)cc2c1C(=O)c1c(O)cccc1C2=O` [OBTUSIFOLIN], the values for the Activity in test [1], in test [2] and in test [3] were >0.25 mg/mL, 0.25 mg/mL and 0.25 mg/mL, respectively.
Turning to `COc1cc(O)c2c(c1)C(=O)c1cc(C)cc(O)c1C2=O` [PHYSCION], the Activity in test [1] was 0.25 mg/mL; in test [2], 0.25 mg/mL; in test [3] it was >0.25 mg/mL.
Turning to `O=C1c2ccccc2C(=O)c2c(O)ccc(O)c21` [QUINIZARIN], the Activity in test [1], in test [2] and in test [3] was >0.25 mg/mL throughout.
For the compound `O=C(O)c1cc(O)c2c(c1)C(=O)c1cccc(O)c1C2=O` [RHEIN], the Activity in test [1], in test [2] and in test [3] was 0.25 mg/mL in each case.
